Results as given in patent US20090062294A1, “HETEROARYL-SUBSTITUTED UREA MODULATORS OF FATTY ACID AMIDE HYDROLASE” (priority 2007, published 2009).
pIC50: −log10 of the molar value. Counter-ions that a name gives are not always drawn.

What was measured:
[1] = biological target: T1, rat FAAH (Rattus norvegicus, UniProt P97612); test: Assay Method 2: FAAH assay, 3H-anandamide hydrolysis in homogenate of SK-N-MC cells transfected with rat FAAH; type: biochemical; details: average of results, > = solubility limit or highest concentration tested
T1 sequence (P97612 1-579): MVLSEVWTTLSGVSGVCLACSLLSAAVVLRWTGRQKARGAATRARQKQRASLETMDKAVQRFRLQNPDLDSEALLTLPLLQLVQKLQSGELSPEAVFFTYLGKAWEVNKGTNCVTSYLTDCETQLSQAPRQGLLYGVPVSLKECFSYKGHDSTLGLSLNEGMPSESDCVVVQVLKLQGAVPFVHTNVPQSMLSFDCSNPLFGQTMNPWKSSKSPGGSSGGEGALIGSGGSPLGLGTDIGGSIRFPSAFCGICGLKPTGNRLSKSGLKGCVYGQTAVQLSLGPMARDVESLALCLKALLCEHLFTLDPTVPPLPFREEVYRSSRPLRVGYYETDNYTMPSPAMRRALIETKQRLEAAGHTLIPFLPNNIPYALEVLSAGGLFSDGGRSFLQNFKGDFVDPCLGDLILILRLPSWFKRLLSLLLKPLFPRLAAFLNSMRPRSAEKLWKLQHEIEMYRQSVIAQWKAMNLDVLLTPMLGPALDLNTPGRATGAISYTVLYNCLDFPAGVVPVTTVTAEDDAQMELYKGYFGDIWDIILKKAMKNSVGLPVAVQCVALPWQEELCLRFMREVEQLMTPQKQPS
Summary of the method: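 Homogenate of SK-N-MC cells stably transfected with rat FAAH cDNA (G418-selected clones) in pH 9 Tris/EDTA/glycerol/Triton buffer. Incubated with compound and 80 nM final [3H]-anandamide for 1 h at rt. Released [3H]-ethanolamine separated from substrate on activated charcoal filters and counted by scintillation.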

[2] = biological target: T2, FAAH (Homo sapiens, UniProt O00519); test: Assay Method 1: FAAH assay, 3H-anandamide hydrolysis in homogenate of T84 cells or SK-N-MC cells transfected with human FAAH; type: biochemical; details: average of results, > = solubility limit or highest concentration tested
T2 sequence (O00519 1-579): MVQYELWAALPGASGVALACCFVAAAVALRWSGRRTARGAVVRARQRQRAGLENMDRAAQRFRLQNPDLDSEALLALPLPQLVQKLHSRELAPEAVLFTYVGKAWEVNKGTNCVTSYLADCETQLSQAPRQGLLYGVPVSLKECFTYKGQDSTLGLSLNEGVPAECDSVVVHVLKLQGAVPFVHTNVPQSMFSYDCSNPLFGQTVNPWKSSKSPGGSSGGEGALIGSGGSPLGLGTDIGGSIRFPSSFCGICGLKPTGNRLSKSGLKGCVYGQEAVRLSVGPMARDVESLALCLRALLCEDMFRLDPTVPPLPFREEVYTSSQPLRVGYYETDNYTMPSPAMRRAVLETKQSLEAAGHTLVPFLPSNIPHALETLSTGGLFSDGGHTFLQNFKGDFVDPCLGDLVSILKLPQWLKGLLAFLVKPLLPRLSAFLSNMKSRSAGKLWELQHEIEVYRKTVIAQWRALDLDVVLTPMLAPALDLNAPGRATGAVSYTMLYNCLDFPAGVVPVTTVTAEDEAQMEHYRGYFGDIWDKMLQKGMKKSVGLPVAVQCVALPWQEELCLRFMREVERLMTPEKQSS
Summary of the method: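 Homogenates of T84 cells or of SK-N-MC cells stably transfected with human FAAH (G418-selected) were prepared in pH 9 Tris/EDTA/glycerol/Triton buffer. They were incubated with compound and 80 nM final ^3H-anandamide for 1 h at rt. Released ^3H-ethanolamine was separated on activated charcoal and counted by scintillation.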

Compound	pIC50 [1]	pIC50 [2]
O=C(Nc1cnccn1)N1CCN(Cc2cccc(Oc3cccc(Br)c3)c2)CC1 [Example 240, 4-[3-(3-Bromophenoxy)benzyl]-N-pyrazin-2-ylpiperazine-1-carboxamide]	7.10	7.70
O=C(Nc1noc2ccccc12)N1CCN(Cc2cccc(C#Cc3cccc4ccccc34)c2)CC1 [Example 86, N-1,2-Benzisoxazol-3-yl-4-[3-(naphthalen-1-ylethynyl)benzyl]piperazine-1-carboxamide]	6.24	5.52
O=C(Nc1ccon1)N1CCN(Cc2cccc(Oc3ccc(S(=O)(=O)C(F)(F)F)cc3)c2)CC1 [Example 158, N-Isoxazol-3-yl-4-(3-{4-[(trifluoromethyl)sulfonyl]phenoxy}benzyl)-piperazine-1-carboxamide]	6.82	8.00
O=C(Nc1ccc(Cl)nn1)N1CCC(Cc2ccc3ccccc3c2)CC1 [Example 9, 4-Naphthalen-2-ylmethyl-piperidine-1-carboxylic acid (6-chloro-pyridazin-3-yl)-amide]	7.24	6.26
O=C(Nc1cnccn1)N1CCN(Cc2cccc(Oc3ccccc3Cl)c2)CC1 [Example 238, 4-[3-(2-Chlorophenoxy)benzyl]-N-pyrazin-2-ylpiperazine-1-carboxamide]	5.80	6.70
O=C(Nc1ccc(Cl)nn1)N1CCN(Cc2cccc(Oc3cccc(C(F)(F)F)c3)c2)CC1 [Example 44, 4-[3-(3-Trifluoromethyl-phenoxy)-benzyl]-piperazine-1-carboxylic acid (6-chloro-pyridazin-3-yl)-amide trifluoroacetic acid salt]	7.34	6.19
O=C(Nc1noc2ccccc12)N1CCN(Cc2ccc(OC(F)(F)F)c(F)c2)CC1 [Example 108, N-1,2-Benzisoxazol-3-yl-4-[3-fluoro-4-(trifluoromethoxy)benzyl]-piperazine-1-carboxamide]	7.30	6.85
O=C(Nc1ccon1)N1CCN(Cc2ccc(Br)cc2)CC1 [Example 148, 4-(4-Bromo-benzyl)-piperazine-1-carboxylic acid isoxazol-3-ylamide]	< 5.00	5.30
O=C(Nc1cccnn1)N1CCN(Cc2ccc3ccccc3c2)CC1 [Example 200, 4-(Naphthalen-2-ylmethyl)-N-pyridazin-3-ylpiperazine-1-carboxamide]	6.30	7.42
Cn1cc(Br)c(NC(=O)N2CCN(Cc3cccc(Oc4ccc(Cl)cc4)c3)CC2)n1 [Example 192, 4-[3-(4-Chloro-phenoxy)-benzyl]-piperazine-1-carboxylic acid (4-bromo-1-methyl-1H-pyrazol-3-yl)-amide trifluoroacetic acid salt]	< 5.00	5.40
O=C(Nc1ccon1)N1CCN(Cc2cccc(Oc3ccc(OCC(F)(F)F)cc3)c2)CC1 [Example 137, N-Isoxazol-3-yl-4-{3-[4-(2,2,2-trifluoroethoxy)phenoxy]benzyl}piperazine-1-carboxamide]	6.44	7.22
O=C(Nc1cnccn1)N1CCN(Cc2cccc(Oc3cccc(OC(F)(F)F)c3)c2)CC1 [Example 242, N-Pyrazin-2-yl-4-{3-[3-(trifluoromethoxy)phenoxy]benzyl}piperazine-1-carboxamide]	7.30	8.05
O=C(Nc1cnccn1)N1CCN(Cc2ccc3c(c2)OC(F)(F)O3)CC1 [Example 210, 4-[(2,2-Difluoro-1,3-benzodioxol-5-yl)methyl]-N-pyrazin-2-ylpiperazine-1-carboxamide]	5.94	5.76
COC(=O)c1ccccc1C#Cc1cccc(CN2CCN(C(=O)Nc3noc4ccccc34)CC2)c1 [Example 87, Methyl 2-[(3-{[4-(1,2-benzisoxazol-3-ylcarbamoyl)piperazin-1-yl]methyl}phenyl)ethynyl]benzoate]	6.32	5.70
O=C(Nc1ccon1)N1CCN(Cc2cccc(Oc3cccc(Cl)c3)c2)CC1 [Example 136, 4-[3-(3-Chlorophenoxy)benzyl]-N-isoxazol-3-ylpiperazine-1-carboxamide]	6.00	7.26
O=C(Nc1noc2ccccc12)N1CCN(Cc2cccc(Oc3ccccn3)c2)CC1 [Example 96, N-1,2-Benzisoxazol-3-yl-4-[3-(pyridin-2-yloxy)benzyl]piperazine-1-carboxamide]	5.96	6.70
O=C(Nc1cccc2nonc12)N1CCC(Cc2ccc3ccccc3c2)CC1 [Example 15, 4-Naphthalen-2-ylmethyl-piperidine-1-carboxylic acid benzo[1,2,5]oxadiazol-4-ylamide]	7.64	7.23
O=C(Nc1noc2ccccc12)N1CCN(Cc2cc3ccccc3o2)CC1 [Example 126, 4-Benzofuran-2-ylmethyl-piperazine-1-carboxylic acid benzo[d]isoxazol-3-ylamide]	6.70	7.22
CCn1nccc1NC(=O)N1CCN(Cc2cccc(Oc3ccc(Cl)cc3)c2)CC1 [Example 193, 4-[3-(4-Chloro-phenoxy)-benzyl]-piperazine-1-carboxylic acid (2-ethyl-2H-pyrazol-3-yl)-amide trifluoroacetic acid salt]	5.22	6.49
O=C(Nc1ccon1)N1CCN(Cc2ccc(Br)c(F)c2)CC1 [Example 151, 4-(4-Bromo-3-fluoro-benzyl)-piperazine-1-carboxylic acid isoxazol-3-ylamide]	5.22	5.52
O=C(Nc1cnccn1)N1CCN(Cc2cccc(Oc3cccc(C(F)(F)F)c3)c2)CC1 [Example 60, 4-[3-(3-Trifluoromethyl-phenoxy)-benzyl]-piperazine-1-carboxylic acid pyrazin-2-ylamide trifluoroacetic acid salt]	7.80	6.78
N#Cc1ccc(Oc2cccc(CN3CCN(C(=O)Nc4nn[nH]n4)CC3)c2)cc1C(F)(F)F [Example 170, 4-{3-[4-Cyano-3-(trifluoromethyl)phenoxy]benzyl}-N-1H-tetrazol-5-ylpiperazine-1-carboxamide]	5.74	5.92
N#Cc1cccc(Oc2cccc(CN3CCN(C(=O)Nc4noc5ccccc45)CC3)c2)c1 [Example 129, N-1,2-Benzisoxazol-3-yl-4-[3-(3-cyanophenoxy)benzyl]piperazine-1-carboxamide]	6.92	7.10
O=C(Nc1cc[nH]n1)N1CCN(Cc2ccc(F)c(Oc3ccccc3)c2)CC1 [Example 56, 4-(4-Fluoro-3-phenoxy-benzyl)-piperazine-1-carboxylic acid (1H-pyrazol-3-yl)-amide trifluoroacetic acid salt]	6.26	5.82
O=C(Nc1ccc2[nH]nnc2c1)N1CCC(Cc2ccc3ccccc3c2)CC1 [Example 16, 4-Naphthalen-2-ylmethyl-piperidine-1-carboxylic acid (1H-benzotriazol-5-yl)-amide]	8.30	7.41
O=C(Nc1noc2ccccc12)N1CCN(Cc2ccc(Br)c(Br)c2)CC1 [Example 121, N-1,2-Benzisoxazol-3-yl-4-(3,4-dibromobenzyl)piperazine-1-carboxamide]	7.60	7.77
